Experimental data as given in patent US9315494B2, “Alkyl-amide-substituted pyridyl compounds useful as modulators of IL-12, IL-23 and/or IFNα responses” (Bristol-Myers Squibb Company, priority 2012, dated 2016).
One block for each compound: values may come before it.

Assays:
[1] = tested on: IFNα-stimulated STAT-dependent luciferase reporter in Kit225 T cells; assay: Kit225 T cell assay, IFNα stimulated STAT-dependent luciferase reporter; format: cell-based, human; settings: Kit225 T cells, 200 U/mL human recombinant IFNα, 5-6 hours, luciferase; read-out: IFNα (Kit225 T Cell Inhibition Data)
Procedure, shortened: (§1)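 Stimulus was either 200 U/mL human recombinant IFNα or 20 ng/mL IL-23, applied for 5-6 h to reporter-bearing Kit225 T cells grown in RPMI/10% FBS. Luciferase expression then quantified by luminescent assay.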

[2] = tested on: IL-23-stimulated STAT-dependent luciferase reporter in Kit225 T cells; assay: Kit225 T cell assay, IL-23 stimulated STAT-dependent luciferase reporter; format: cell-based, human; settings: Kit225 T cells, 20 ng/mL human recombinant IL-23, 5-6 hours, luciferase; read-out: IL23 (Kit225 T Cell Inhibition Data)
Procedure, shortened: as §1

[3] = target: T1, recombinantly expressed His-tagged protein corresponding to amino acids 575-869 of human Tyk2 (Homo sapiens, UniProt P29597); assay: Probe displacement assay (scintillation proximity, [3H] probe); format: binding; settings: 2.5 nM Tyk2 (575-869), 40 nM radiolabeled probe, 30 minutes at room temperature
T1 construct: corresponding to amino acids 575-869 of human Tyk2; made in house
Protocol: The probe displacement assay is conducted as follows: In a […], test compounds along with recombinantly expressed His-tagged protein corresponding to amino acids 575-869 of human Tyk2 (sequence shown below) at 2.5 nM, 40 nM ((R)-N-(1-(3-(8-methyl-5-(methylamino)-8H-imidazo[4,5-d]thiazolo[5,4-b]pyridin-2-yl)phenyl)ethyl)-2-([^3H]methylsulfonyl)benzamide) (preparation described below) and 80 μg/mL Copper His-Tag scintillation proximity assay beads (Perkin Elmer, Catalog #RPNQ0095) in 50 mM HEPES, pH 7.5, containing 100 μg/mL bovine serum albumin and 5% DMSO were incubated for 30 minutes at room temperature. The amount of radiolabeled probe (preparation described below) bound to Tyk2 was then quantified by scintillation counting, and the inhibition by the test compound calculated by comparison to wells either with no inhibitor (0% inhibition) or without Tyk2 (100% inhibition).
Protein Sequence of recombinant Hig-tagged Tyk2 (575-869):
The preparation of radiolabeled probe, (R)-N-(1-(3-(8-methyl-5-(methylamino)-8H-imidazo[4,5-d]thiazolo[5,4-b]pyridin-2-yl)phenyl)ethyl)-2-([^3H]methylsulfonyl)benzamide, was performed as described below: […]

T1 sequence (P29597 575-869): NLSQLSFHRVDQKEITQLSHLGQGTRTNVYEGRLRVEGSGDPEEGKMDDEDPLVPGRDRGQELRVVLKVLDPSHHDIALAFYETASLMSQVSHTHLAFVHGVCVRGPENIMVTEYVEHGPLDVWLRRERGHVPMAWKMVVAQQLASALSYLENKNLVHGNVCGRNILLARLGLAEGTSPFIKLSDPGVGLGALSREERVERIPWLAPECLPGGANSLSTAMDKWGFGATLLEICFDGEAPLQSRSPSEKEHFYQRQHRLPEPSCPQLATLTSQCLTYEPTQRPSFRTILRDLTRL

Structure (SMILES): CNC(=O)c1cnc(Nc2cc(C)c(F)cn2)cc1Nc1cccc(C(=O)NCc2nccs2)c1OC [Example 345]
IC50 [1]: 0.03 µM
IC50 [2]: 0.03 µM
EC50 [3]: 0.0105 µM

Structure (SMILES): CNC(=O)c1cnc(Nc2cc(C)c(F)cn2)cc1Nc1cccc(C(=O)NCCF)c1OC [Example 356]
IC50 [1]: 0.08 µM
IC50 [2]: 0.12 µM
EC50 [3]: 0.0026 µM

Structure (SMILES): CNC(=O)c1cnc(Nc2cc(C)n(C)n2)cc1Nc1cccc(-c2nnc[nH]2)c1OC [Example 363]
IC50 [1]: 0.04 µM
IC50 [2]: 0.07 µM
EC50 [3]: 0.0047 µM

Structure (SMILES): CNC(=O)c1cnc(Nc2cc(C)c(F)cn2)cc1Nc1cccc(-c2nc[nH]n2)c1OC(F)F [Example 387]
IC50 [1]: 0.12 µM
IC50 [2]: 0.28 µM
EC50 [3]: 0.0046 µM

Structure (SMILES): CNC(=O)c1cnc(Nc2cc(C)nc(C)n2)cc1Nc1cccc(-c2cnn(C)c2)c1OC [Example 395]
IC50 [1]: 0.02 µM
IC50 [2]: 0.03 µM
EC50 [3]: 0.0031 µM

Structure (SMILES): CNC(=O)c1cnc(Nc2cc(C)c(F)cn2)cc1Nc1cccc(-c2cnn(C)c2)c1OC [Example 396]
IC50 [1]: 0.06 µM
IC50 [2]: 0.11 µM
EC50 [3]: 0.0065 µM

Structure (SMILES): CNC(=O)c1cnc(Nc2cc(C)nc(C)n2)cc1Nc1cc(F)cc(F)c1OC [Example 409]
IC50 [1]: 0.02 µM
IC50 [2]: 0.04 µM
EC50 [3]: 0.0063 µM

Structure (SMILES): CCc1cc(Nc2cc(Nc3ccccc3S(C)(=O)=O)c(C(=O)NC)cn2)ncn1 [Example 420]
IC50 [1]: 0.12 µM
IC50 [2]: 0.08 µM
EC50 [3]: 0.003 µM

Structure (SMILES): CNC(=O)c1cnc(Nc2cc(OC(C)C)ncn2)cc1Nc1ccccc1S(C)(=O)=O [Example 422]
IC50 [1]: 0.18 µM
IC50 [2]: 0.31 µM
EC50 [3]: 0.0057 µM

Structure (SMILES): [2H]C([2H])([2H])NC(=O)c1cnc(Nc2cc(C)c(C#N)c(C)n2)cc1Nc1ccccc1S(C)(=O)=O [Example 438]
IC50 [1]: 0.08 µM
IC50 [2]: 0.15 µM
EC50 [3]: 0.0115 µM

The next lines start with the values.

IC50 [1]: 0.01 µM
IC50 [2]: 0.00998 µM
EC50 [3]: 0.0053 µM
Structure (SMILES): CNC(=O)c1cnc(Nc2cc(C)c(F)cn2)cc1Nc1cccc(-c2nnco2)c1OC [Example 358]

IC50 [1]: 0.01 µM
IC50 [2]: 0.01 µM
EC50 [3]: 0.0048 µM
Structure (SMILES): CNC(=O)c1cnc(Nc2cc(C)nc(C)n2)cc1Nc1cccc(-c2nnc(C)[nH]2)c1OC [Example 365]

IC50 [1]: 0.00507 µM
IC50 [2]: 0.01 µM
EC50 [3]: 0.0046 µM
Structure (SMILES): CCn1cnc(-c2cccc(Nc3cc(Nc4cc(C)nc(C)n4)ncc3C(=O)NC)c2OC)n1 [Example 382]

IC50 [1]: 0.02 µM
IC50 [2]: 0.1 µM
EC50 [3]: 0.0061 µM
Structure (SMILES): CCn1ncnc1-c1cccc(Nc2cc(Nc3cc(C)nc(C)n3)ncc2C(=O)NC)c1OC [Example 383]

IC50 [1]: 0.01 µM
IC50 [2]: 0.00966 µM
EC50 [3]: 0.006 µM
Structure (SMILES): CNC(=O)c1cnc(Nc2cc(C)c(F)cn2)cc1Nc1cccc(-c2ccn(C)n2)c1OC [Example 391]

IC50 [1]: 0.00286 µM
IC50 [2]: 0.00583 µM
EC50 [3]: 0.0035 µM
Structure (SMILES): CNC(=O)c1cnc(Nc2cc(C)nc(C)n2)cc1Nc1cccc(-c2ccn(C)n2)c1OC [Example 393]

IC50 [1]: 0.01 µM
IC50 [2]: 0.01 µM
EC50 [3]: 0.0042 µM
Structure (SMILES): CNC(=O)c1cnc(Nc2ccc(F)cn2)cc1Nc1ccccc1N(C)S(C)(=O)=O [Example 426]

IC50 [1]: 0.017 µM
IC50 [2]: 0.011 µM
EC50 [3]: 0.008 µM
Structure (SMILES): [2H]C([2H])([2H])NC(=O)c1cnc(Nc2ccc(C)nn2)cc1Nc1cccc(-c2csc(C)n2)c1OC [Example 448]

IC50 [1]: 0.01 µM
IC50 [2]: 0.02 µM
EC50 [3]: 0.0011 µM
Structure (SMILES): [2H]C([2H])([2H])NC(=O)c1cnc(Nc2ccccn2)cc1Nc1cccc(-c2ncc(F)cn2)c1OC [Example 449]

IC50 [1]: 0.01 µM
IC50 [2]: 0.02 µM
EC50 [3]: 0.0073 µM
Structure (SMILES): [2H]C([2H])([2H])NC(=O)c1cnc(Nc2cc(C(C)(C)O)ccn2)cc1Nc1cccc(-c2ncc(F)cn2)c1OC [Example 450]
